Patent US20240246967A1, “AXL COMPOUNDS” (ARCUS BIOSCIENCES, INC., priority 2021, published 2024)

Legend:
[1] = target: T1, Axl (Homo sapiens, UniProt P30530); assay: HTRF KinEASE-TK biochemical potency assay, AXL; parameters: purchased Invitrogen; conditions: 5 nM AXL, 700 μM ATP, 800 nM TK Substrate-biotin
T1 sequence (P30530 26-894): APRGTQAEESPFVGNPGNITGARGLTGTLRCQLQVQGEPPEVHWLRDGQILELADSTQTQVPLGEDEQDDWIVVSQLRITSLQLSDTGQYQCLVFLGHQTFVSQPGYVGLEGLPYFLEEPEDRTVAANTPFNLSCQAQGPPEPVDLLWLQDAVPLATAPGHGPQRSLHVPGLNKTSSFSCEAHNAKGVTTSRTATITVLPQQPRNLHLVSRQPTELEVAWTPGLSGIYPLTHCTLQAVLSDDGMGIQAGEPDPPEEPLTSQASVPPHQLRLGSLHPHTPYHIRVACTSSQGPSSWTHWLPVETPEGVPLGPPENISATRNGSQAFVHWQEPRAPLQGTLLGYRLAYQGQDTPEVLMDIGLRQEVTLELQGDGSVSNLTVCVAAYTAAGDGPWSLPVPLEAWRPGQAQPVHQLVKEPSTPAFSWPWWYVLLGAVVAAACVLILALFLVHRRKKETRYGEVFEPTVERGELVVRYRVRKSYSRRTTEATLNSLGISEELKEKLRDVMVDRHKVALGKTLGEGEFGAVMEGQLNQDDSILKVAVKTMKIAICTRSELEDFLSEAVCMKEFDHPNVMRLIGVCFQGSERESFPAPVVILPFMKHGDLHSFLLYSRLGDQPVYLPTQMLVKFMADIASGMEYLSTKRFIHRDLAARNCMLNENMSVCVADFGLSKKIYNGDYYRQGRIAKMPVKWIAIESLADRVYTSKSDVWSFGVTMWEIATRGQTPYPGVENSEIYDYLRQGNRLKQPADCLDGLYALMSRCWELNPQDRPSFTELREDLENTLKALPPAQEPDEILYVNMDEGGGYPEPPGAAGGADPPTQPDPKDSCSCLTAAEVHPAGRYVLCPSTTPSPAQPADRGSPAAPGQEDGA
Summary of the method: (§1)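 Final conditions: 5 nM AXL, 1 nM TYRO3 or MER, 50 mM HEPES pH 7.4, 10 mM MgCl2, 0.01% BSA, 1 mM DTT, 700 μM ATP. Reaction ran 2 h at RT after 1 h preincubation with compound; HTRF signal read at 665/620 nm.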

[2] = target: T2, human TYRO3 (Homo sapiens, UniProt Q06418); assay: HTRF KinEASE-TK biochemical potency assay, TYRO3; conditions: 1 nM TYRO3, 700 μM ATP, 800 nM TK Substrate-biotin
T2 construct: purchased Invitrogen
T2 sequence (Q06418 41-890): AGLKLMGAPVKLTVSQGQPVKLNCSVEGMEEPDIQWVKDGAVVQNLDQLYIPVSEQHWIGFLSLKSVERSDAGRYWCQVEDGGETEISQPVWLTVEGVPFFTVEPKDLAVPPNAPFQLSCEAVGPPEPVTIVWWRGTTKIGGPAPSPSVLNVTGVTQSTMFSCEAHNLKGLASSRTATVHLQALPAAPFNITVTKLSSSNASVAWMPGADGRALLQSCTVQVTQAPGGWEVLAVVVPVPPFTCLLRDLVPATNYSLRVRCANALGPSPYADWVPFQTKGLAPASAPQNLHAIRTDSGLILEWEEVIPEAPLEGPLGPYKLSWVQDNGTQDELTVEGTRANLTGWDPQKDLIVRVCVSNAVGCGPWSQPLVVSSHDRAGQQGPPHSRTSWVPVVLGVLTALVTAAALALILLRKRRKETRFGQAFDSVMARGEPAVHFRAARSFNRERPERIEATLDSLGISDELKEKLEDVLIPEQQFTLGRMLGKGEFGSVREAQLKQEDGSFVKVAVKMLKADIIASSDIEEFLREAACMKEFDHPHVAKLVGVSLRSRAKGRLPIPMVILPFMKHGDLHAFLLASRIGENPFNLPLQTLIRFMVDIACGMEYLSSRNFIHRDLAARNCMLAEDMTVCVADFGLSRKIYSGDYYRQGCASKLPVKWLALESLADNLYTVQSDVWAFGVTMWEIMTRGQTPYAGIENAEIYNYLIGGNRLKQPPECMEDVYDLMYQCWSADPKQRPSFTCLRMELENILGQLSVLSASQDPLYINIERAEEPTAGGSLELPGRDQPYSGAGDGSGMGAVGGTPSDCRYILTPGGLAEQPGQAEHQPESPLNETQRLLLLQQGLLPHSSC
Summary of the method: as §1

For CC(C)(O)c1ccc(-c2n[nH]c3ncc(-c4cc5c(cn4)CCC(N4CCCC4)CC5)cc23)cc1Cl (stereo not drawn) [Example 59, 2-(2-Chloro-4-{5-[7-(pyrrolidin-1-yl)-5H,6H,7H,8H,9H-cyclohepta[c]pyridin-3-yl]-1H-pyrazolo[3,4-b]pyridin-3-yl}phenyl)propan-2-ol], the IC50 [1] was under 0.1 µM and the IC50 [2] was under 0.1 µM.

CC(C)(O)c1ccc(-c2n[nH]c3ncc(-c4ccc5c(n4)CCC(N4CCCC4)CC5)cc23)cc1Cl (stereo not drawn) [Example 60, 2-(2-Chloro-4-{5-[7-(pyrrolidin-1-yl)-5H,6H,7H,8H,9H-cyclohepta[b]pyridin-2-yl]-1H-pyrazolo[3,4-b]pyridin-3-yl}phenyl)propan-2-ol] showed an IC50 [1] of 0.1 to 1 µM and an IC50 [2] of 0.1 to 1 µM.

Compound CC(C)(O)c1ccc(-c2n[nH]c3ncc(-c4ccc5c(c4)CC4CCC(C5)C4N4CCCC4)cc23)cc1Cl (stereo not drawn) [Example 61, 2-(2-Chloro-4-{5-[13-(pyrrolidin-1-yl)tricyclo[8.2.1.0^3,8]trideca-3,5,7-trien-5-yl]-1H-pyrazolo[3,4-b]pyridin-3-yl}phenyl)propan-2-ol] has an IC50 [1] of over 1 µM and an IC50 [2] of over 1 µM.

Compound C[C@@H]1CCCN1C1CCc2ccc(-c3cnc4[nH]nc(-c5ccc(C6(O)CCC6)c(Cl)c5)c4c3)cc2CC1 (stereo partly drawn) [Example 62, 1-[2-Chloro-4-(5-{7-[(2R)-2-methylpyrrolidin-1-yl]-6,7,8,9-tetrahydro-5H-benzo[7]annulen-2-yl}-1H-pyrazolo[3,4-b]pyridin-3-yl)phenyl]cyclobutan-1-ol] has an IC50 [1] of under 0.1 µM and an IC50 [2] of 0.1 to 1 µM.

In the case of C[C@@H]1CCCN1C1CCc2ccc(-c3cnc4[nH]nc(-c5ccc(S(N)(=O)=O)c(Cl)c5)c4c3)cc2CC1 (stereo partly drawn) [Example 94, 2-Chloro-4-(5-(7-((R)-2-methylpyrrolidin-1-yl)-6,7,8,9-tetrahydro-5H-benzo[7]annulen-2-yl)-1H-pyrazolo[3,4-b]pyridin-3-yl)benzenesulfonamide], the IC50 [1] is reported as under 0.1 µM and the IC50 [2] is reported as under 0.1 µM.

With C[C@@H]1CCCN1C1(C)CCc2ccc(-c3cnc4[nH]nc(-c5ccc(S(N)(=O)=O)cc5)c4c3)cc2CC1 (stereo partly drawn) [Example 95, 4-(5-(7-Methyl-7-((R)-2-methylpyrrolidin-1-yl)-6,7,8,9-tetrahydro-5H-benzo[7]annulen-2-yl)-1H-pyrazolo[3,4-b]pyridin-3-yl)benzenesulfonamide] the IC50 [1] was under 0.1 µM and the IC50 [2] was under 0.1 µM.

Compound CC(C)(O)c1ccc(-c2n[nH]c3ncc(-c4ccc5c(c4)CCC4(CCCN4)CC5)cc23)cc1Cl (stereo not drawn) [Example 96, 2-[2-Chloro-4-(5-{5,6,8,9-tetrahydrospiro[benzo[7]annulene-7,2′-pyrrolidin]-3-yl}-1H-pyrazolo[3,4-b]pyridin-3-yl)phenyl]propan-2-ol] has an IC50 [1] of under 0.1 µM and an IC50 [2] of 0.1 to 1 µM.

C[C@@H]1CCCN1C1CCc2ccc(-c3cnc4[nH]nc(-c5ccc(C(C)(C)O)cn5)c4c3)cc2CC1 (stereo partly drawn) [Example 97, 2-[6-(5-{7-[(2R)-2-Methylpyrrolidin-1-yl]-6,7,8,9-tetrahydro-5H-benzo[7]annulen-2-yl}-1H-pyrazolo[3,4-b]pyridin-3-yl)pyridin-3-yl]propan-2-ol] gave an IC50 [1] of under 0.1 µM and an IC50 [2] of 0.1 to 1 µM.

Compound C[C@@H]1CCCN1C1(C)CCc2ccc(-c3cnc4[nH]nc(-c5cnc(C(C)(C)O)c(Cl)c5)c4c3)cc2CC1 (stereo partly drawn) [Example 98, 2-[3-Chloro-5-(5-{7-methyl-7-[(2R)-2-methylpyrrolidin-1-yl]-6,7,8,9-tetrahydro-5H-benzo[7]annulen-2-yl}-1H-pyrazolo[3,4-b]pyridin-3-yl)pyridin-2-yl]propan-2-ol] has an IC50 [1] of under 0.1 µM and an IC50 [2] of 0.1 to 1 µM.

C[C@@H]1CCCN1C1(C)CCc2ccc(-c3cnc4[nH]nc(-c5ccc(C(=O)N[C@@H]6CCOC6)cc5)c4c3)cc2CC1 (stereo partly drawn) [Example 99, 4-(5-{7-Methyl-7-[(2R)-2-methylpyrrolidin-1-yl]-6,7,8,9-tetrahydro-5H-benzo[7]annulen-2-yl}-1H-pyrazolo[3,4-b]pyridin-3-yl)-N-[(3R)-oxolan-3-yl]benzamide] was tested, and the IC50 [1] was under 0.1 µM and the IC50 [2] was over 1 µM.

CCS(=N)(=O)c1ccc(-c2n[nH]c3ncc(-c4ccc5c(c4)CCC(C)(N4CCC[C@H]4C)CC5)cc23)cc1 (stereo partly drawn) [Example 100, Ethyl(imino)[4-(5-{7-methyl-7-[(2R)-2-methylpyrrolidin-1-yl]-6,7,8,9-tetrahydro-5H-benzo[7]annulen-2-yl}-1H-pyrazolo[3,4-b]pyridin-3-yl)phenyl]-λ^6-sulfanone] gave an IC50 [1] of under 0.1 µM and an IC50 [2] of 0.1 to 1 µM.

C[C@@H]1CCCN1[C@@H]1CCc2cc(-c3cnc4[nH]nc(-c5ccc(S(=O)(=O)C6CC6)cc5)c4c3)cnc2CC1 [Example 101, (2R)-1-(3-{3-[4-(Cyclopropanesulfonyl)phenyl]-1H-pyrazolo[3,4-b]pyridin-5-yl}-5H,6H,7H,8H,9H-cyclohepta[b]pyridin-7-yl)-2-methylpyrrolidine] showed an IC50 [1] of under 0.1 µM and an IC50 [2] of 0.1 to 1 µM.

Compound C[C@@H]1CCCN1[C@H]1CCc2cc(-c3cnc4[nH]nc(-c5ccc(S(=O)(=O)C6CC6)cc5)c4c3)cnc2CC1 [Example 102, (2R)-1-[(7S)-3-{3-[4-(Cyclopropanesulfonyl)phenyl]-1H-pyrazolo[3,4-b]pyridin-5-yl}-5H,6H,7H,8H,9H-cyclohepta[b]pyridin-7-yl]-2-methylpyrrolidine] has an IC50 [1] of 0.1 to 1 µM and an IC50 [2] of over 1 µM.

In the case of COC1CCN(S(=O)(=O)c2ccc(-c3n[nH]c4ncc(-c5ccc6c(c5)CCC(C)(N5CCC[C@H]5C)CC6)cc34)cc2)CC1 (stereo partly drawn) [Example 103, 3-(4-((4-Methoxypiperidin-1-yl)sulfonyl)phenyl)-5-(7-methyl-7-((R)-2-methylpyrrolidin-1-yl)-6,7,8,9-tetrahydro-5H-benzo[7]annulen-2-yl)-1H-pyrazolo[3,4-b]pyridine], the IC50 [1] is reported as under 0.1 µM and the IC50 [2] is reported as 0.1 to 1 µM.

With C[C@@H]1CCCN1C1(C)CCc2ccc(-c3cnc4[nH]nc(-c5ccc(S(=O)(=O)N6CCC6)cc5)c4c3)cc2CC1 (stereo partly drawn) [Example 104, (2R)-1-(2-{3-[4-(Azetidine-1-sulfonyl)phenyl]-1H-pyrazolo[3,4-b]pyridin-5-yl}-7-methyl-6,7,8,9-tetrahydro-5H-benzo[7]annulen-7-yl)-2-methylpyrrolidine] the IC50 [1] was under 0.1 µM and the IC50 [2] was under 0.1 µM.

For C[C@@H]1CCCN1C1(C)CCc2ccc(-c3cnc4[nH]cc(-c5ccc(S(=O)(=O)C6CC6)cc5)c4c3)cc2CC1 (stereo partly drawn) [Example 105, (2R)-1-(2-{3-[4-(Cyclopropanesulfonyl)phenyl]-1H-pyrrolo[2,3-b]pyridin-5-yl}-7-methyl-6,7,8,9-tetrahydro-5H-benzo[7]annulen-7-yl)-2-methylpyrrolidine], the IC50 [1] was under 0.1 µM and the IC50 [2] was 0.1 to 1 µM.

C[C@@H]1CCCN1C1(C)CCc2ccc(-c3cnc4[nH]nc(-c5ccc(N6CCOCC6)cc5)c4c3)cc2CC1 (stereo partly drawn) [Example 107, 4-[4-(5-{7-Methyl-7-[(2R)-2-methylpyrrolidin-1-yl]-6,7,8,9-tetrahydro-5H-benzo[7]annulen-2-yl}-1H-pyrazolo[3,4-b]pyridin-3-yl)phenyl]morpholine] showed an IC50 [1] of under 0.1 µM and an IC50 [2] of 0.1 to 1 µM.

COCCNCc1ccc(-c2n[nH]c3ncc(-c4ccc5c(c4)CCC(C)(N4CCC[C@H]4C)CC5)cc23)cc1 (stereo partly drawn) [Example 108, (2-Methoxyethyl)({[4-(5-{7-methyl-7-[(2R)-2-methylpyrrolidin-1-yl]-6,7,8,9-tetrahydro-5H-benzo[7]annulen-2-yl}-1H-pyrazolo[3,4-b]pyridin-3-yl)phenyl]methyl})amine] was tested, and the IC50 [1] was under 0.1 µM and the IC50 [2] was 0.1 to 1 µM.
